According to US20220241308A1, “NEURONAL FUNCTION MODULATING AGENT” (University of Tsukuba, priority 2019, published 2022):

What was measured:
Assay type in all cases: cell-based
[1] = test system: PI3KCA (phosphatidylinositol-4,5-bisphosphate 3-kinase catalyst subunit α); assay: Gene expression experiment (real-time PCR) in SH-SY5Y cells: PI3KCA; settings: for expression of PI3KCA: 24 h
Experimental: (§1) SH-SY5Y cells were seeded in 100 mm-cell dishes (BD Biocoat) at concentrations of 3.7×10^5 cells/mL (10 mL/dish) and cultured for 24 h at 37° C. and 5% CO2. Culture medium used was F12/DMEM (Gibco) supplemented with 1% non-essential amino acids (Gibco), 15% FBS (Bio West), and 1% penicillin/streptomycin (Lonza). After 24 h, the culture medium was completely removed with an aspirator, 10 mL of culture medium Opti-MEM(Gibco) was added to each dish, and the cells were cultured for 24 h at 37° C. and 5% CO2. RNA was extracted from the culture cells and analyzed for the expression of genes described below by real-time PCR (designated as “Control” in FIGS. 2 to 8).
(§2) RNA extraction was performed using ISOGEN Reagent (Nippon Gene Co., Ltd.) in accordance with the protocol recommended by Nippo n Gene Co., Ltd. (see URL: https://www.nippongene.com/siyaku/product/extraction/tds/tds_isogen-rna-dna-protein.pdf). Real-time PCR was performed according to the protocol recommended by Thermo Fisher Scientific using a reagent kit for TaqMan Real-Time PCR (Thermo Fisher Scientific) (see URL: https://assets.thermofisher.com/TFS-Assets/LSG/manuals/4304449_TaqManPCRMM_UG.pdf).
(§3) 24 h after seeding 100 mm-cell dishes (BD Biocoat) with SH-SY5Y cells, the culture medium was completely removed with an aspirator, amyloid β protein (Beta-Amyloid 1-42, AnaSpec) was mixed with Opti-MEM (Gibco) so that the final concentration was 5 μM, 10 mL of the mixture was added to each dish, the cells were cultured for 24 h at 37° C. and 5% CO2, and RNA was extracted. Except for performing the procedure described above, gene expression was analyzed as described above (designated as “Aβ” in FIGS. 2 to 8).
(§4) 24 h after seeding 100 mm-cell dishes (BD Biocoat) with SH-SY5Y cells, the culture medium was completely removed with an aspirator, Sample 1 was mixed with culture medium Opti-MEM(Gibco) so that the final concentration was 12.56 μM, 9,990 μL of the mixture was added to each dish and allowed to stand for 10 min, amyloid β protein (Beta-Amyloid 1-42, AnaSpec) was mixed with Opti-MEM (Gibco) so that the final concentration was […], 10 μL of the mixture was added to each well, the cells were cultured for 24 h at 37° C. and 5% CO2, and RNA was extracted. Except for performing the procedure described above, Gene expression was analyzed as described above (designated as “Aβ+M3,5G” in FIGS. 2 to 8).
(§5) Except that Sample 2 was used instead of Sample 1, gene expression was analyzed as described above (designated as “Aβ+M” in FIGS. 2 to 8).
Except that Sample 3 was used instead of Sample 1, gene expression was analyzed as described above (designated as “Aβ+M3G” in FIGS. 2 to 8).
24 h after seeding 100 mm-cell dishes (BD Biocoat) with SH-SY5Y cells, the culture medium was completely removed with an aspirator, 10 mL of culture medium Opti-MEM(Gibco) mixed with Sample 1 was added to each dish, the cells were cultured for 24 h at 37° C. and 5% CO2, and RNA was extracted. Except for performing the procedure described above, gene expression was analyzed as described above (designated as “M3,5G” in FIGS. 2 to 8).

[2] = test system: SH-SY5Y cells; assay: ATP production measurement experiment; settings: 12.56 μM; 6 h, 12 h, 24 h; compared to “Control”
Experimental: Specifically, ATP production was measured according to the protocol recommended by Toyo B-NET (URL: https://search.cosmobio.co.jp/cosmo_search_p/search_gate2/docs/TIC_/CA10.20131125.pdf) using an ATP assay reagent (“Cell” ATP Assay reagent, Toyo B-NET) (designated as “Control” in FIG. 9).
Each well of a 96-well plate (BD Biocoat) was seeded with SH-SY5Y cells (model of neuronal cells, ATCC) at a concentration of 2×10^5 cells/mL (100 μL/well) and the cells were cultured at 37° C. and 5% CO2 for 24 h. Culture medium used was F12/DMEM (Gibco) supplemented with 1% non-essential amino acids (Gibco), 15% FBS (Bio West), and 1% penicillin/streptomycin (Lonza).
After 24 h, the culture medium was completely removed with an aspirator, 100 μL of culture medium Opti-MEM (Gibco) was added to each well, and the cells were cultured for 6 h, 12 h, and 24 h at 37° C. and 5% CO2. After each culturing time point, 100 μL of ATP assay reagent (“Cell” ATP Assay reagent, Toyo Ink)) was added to each well and mixed and the mixture was allowed to stand for reaction for 10 min at room temperature in dark conditions. […] Light emission after a lapse of a predetermined time was measured on a microplate reader (Sumitomo Dainippon Pharma) to find ATP production (designated as “Control” in FIG. 9). […]

[3] = test system: MAPK14 (mitogen-activated protein kinase 14); assay: Gene expression experiment (real-time PCR) in SH-SY5Y cells: MAPK14; settings: 24 h
Experimental: as §1, §2, §3, §4, §5
Except that Sample 3 was used instead of Sample 1, gene expression was analyzed as described above (designated as “Aβ+M3G” in FIGS. 2 to 8). […]

[4] = 12.56 μM, amyloid β protein-treated cells, compared to “Aβ”
[5] = Sample 1 alone, no amyloid β, compared to “Control”

## COc1cc(-c2[o+]c3cc(O)cc(OC4OC(CO)C(O)C(O)C4O)c3cc2OC2OC(CO)C(O)C(O)C2O)cc(OC)c1O (stereo not shown) [M3,5G, Malvidin-3,5-diglucoside chloride]
[1]; [4]
  expression of PI3KCA: significantly high
[1]; 12.56 μM, amyloid β protein-treated cells, compared to “Control”
  expression of PI3KCA: significantly high
[1]; [5]
  expression of PI3KCA: significantly increased
[1]; amyloid β protein-treated cells, 12.56 μM, ranked against malvidin and malvidin-3-glucoside
  activity in increasing the expression of PI3KCA: highest activity
[2]
  ATP production: increased ATP production
[3]; [4]
  expression of MAPK14: significantly high
[3]; [5]
  expression of MAPK14: significantly increased
